Laboratory results taken from the supplement of paper PMC11451515.

Test system: SEM cells
Experiment: cell viability relative to DMSO control; higher = less cytotoxic
Settings: 48 h
Summary of the method: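 NOMO1, SEM and P12-Ichikawa leukemia cells spent at least four passages adapting to each medium before use. They were seeded at 500 cells/well (NOMO1, SEM) or 1000 cells/well (P12-Ichikawa) in 5 μl in 1536-well plates and pin-dosed with library compounds in DMSO at 11 threefold steps from 47 μM down to 0.79 nM. After 48 h at 37°C, CellTiter-Glo One luminescence was read. Viability is reported as a percentage of the DMSO wells on each plate, with cell-free wells as background.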

[1] = HPLM + 10% dialyzed FBS, 0.000781 µM
[2] = HPLM + 10% dialyzed FBS, 0.00234 µM
[3] = HPLM + 10% dialyzed FBS, 0.00702 µM
[4] = HPLM + 10% dialyzed FBS, 0.0211 µM
[5] = HPLM + 10% dialyzed FBS, 0.0632 µM
[6] = HPLM + 10% dialyzed FBS, 0.19 µM
[7] = HPLM + 10% dialyzed FBS, 0.569 µM
[8] = HPLM + 10% dialyzed FBS, 1.71 µM
[9] = HPLM + 10% dialyzed FBS, 5.12 µM
[10] = HPLM + 10% dialyzed FBS, 15.4 µM
[11] = HPLM + 10% dialyzed FBS, 46.1 µM
[12] = RPMI 5 mM glucose + 10% FBS, 0.000781 µM
[13] = RPMI 5 mM glucose + 10% FBS, 0.00234 µM
[14] = RPMI 5 mM glucose + 10% FBS, 0.00702 µM
[15] = RPMI 5 mM glucose + 10% FBS, 0.0211 µM
[16] = RPMI 5 mM glucose + 10% FBS, 0.0632 µM
[17] = RPMI 5 mM glucose + 10% FBS, 0.19 µM
[18] = RPMI 5 mM glucose + 10% FBS, 0.569 µM
[19] = RPMI 5 mM glucose + 10% FBS, 1.71 µM
[20] = RPMI 5 mM glucose + 10% FBS, 5.12 µM
[21] = RPMI 5 mM glucose + 10% FBS, 15.4 µM
[22] = RPMI 5 mM glucose + 10% FBS, 46.1 µM
[23] = RPMI 5 mM glucose + 10% dialyzed FBS, 0.000781 µM
[24] = RPMI 5 mM glucose + 10% dialyzed FBS, 0.00234 µM
[25] = RPMI 5 mM glucose + 10% dialyzed FBS, 0.00702 µM
[26] = RPMI 5 mM glucose + 10% dialyzed FBS, 0.0211 µM
[27] = RPMI 5 mM glucose + 10% dialyzed FBS, 0.0632 µM
[28] = RPMI 5 mM glucose + 10% dialyzed FBS, 0.19 µM
[29] = RPMI 5 mM glucose + 10% dialyzed FBS, 0.569 µM
[30] = RPMI 5 mM glucose + 10% dialyzed FBS, 1.71 µM
[31] = RPMI 5 mM glucose + 10% dialyzed FBS, 5.12 µM
[32] = RPMI 5 mM glucose + 10% dialyzed FBS, 15.4 µM
[33] = RPMI 5 mM glucose + 10% dialyzed FBS, 46.1 µM

Row | Compound | cell viability [1] | cell viability [2] | cell viability [3] | cell viability [4] | cell viability [5] | cell viability [6] | cell viability [7] | cell viability [8] | cell viability [9] | cell viability [10] | cell viability [11] | cell viability [12] | cell viability [13] | cell viability [14] | cell viability [15] | cell viability [16] | cell viability [17] | cell viability [18] | cell viability [19] | cell viability [20] | cell viability [21] | cell viability [22] | cell viability [23] | cell viability [24] | cell viability [25] | cell viability [26] | cell viability [27] | cell viability [28] | cell viability [29] | cell viability [30] | cell viability [31] | cell viability [32] | cell viability [33]
1 | CN1C(=O)/C=C(/NCCN(CCO)CCCC2=CC=C(C=C2)[N+]([O-])=O)N(C)C1=O | 104% | 113% | 121% | 114% | 108% | 136% | 121% | 119% | 120% | 108% | 66.6% | 112% | 111% | 131% | 118% | 109% | 138% | 133% | 123% | 95.2% | 105% | 55% | 103% | 123% | 135% | 111% | 144% | 138% | 136% | 137% | 121% | 107% | 50.8%
2 | NCC(=O)Nc1ccc(-n2nc(C(F)(F)F)cc2-c2ccc3c(ccc4ccccc43)c2)cc1 | 109% | 136% | 117% | 121% | 120% | 112% | 129% | 121% | 113% | 99.1% | 95% | 87.7% | 100% | 112% | 102% | 116% | 114% | 101% | 107% | 98.3% | 84.8% | 72.6% | 119% | 138% | 119% | 124% | 120% | 114% | 128% | 132% | 100% | 51.4% | 45.1%
3 | COc1ccc(Nc2cc(-c3cnc(N)nc3)nc(N3CCOCC3)n2)cn1 | 93.8% | 96.7% | 90.6% | 96.8% | 99.4% | 102% | 92.6% | 84.7% | 47.3% | 59.8% | 44.6% | 104% | 104% | 110% | 115% | 120% | 99.5% | 108% | 99% | 52.8% | 65.6% | 57% | 98.6% | 89.5% | 91% | 105% | 97% | 80.9% | 89.6% | 89.7% | 43.9% | 57.4% | 44.5%
4 | O=C(CCCCCCC(=O)Nc1ccccc1)NO | 77.1% | 112% | 102% | 103% | 124% | 116% | 108% | 108% | 18.8% | 7.11% | 5.17% | 94.2% | 116% | 135% | 123% | 111% | 118% | 125% | 127% | 25% | 6.63% | 5.85% | 62.6% | 100% | 106% | 109% | 114% | 106% | 121% | 103% | 16.4% | 6.03% | 4.79%
5 | Nc1nc(OCc2ccccc2)c2nc[nH]c2n1 | 99.9% | 107% | 114% | 112% | 112% | 124% | 114% | 115% | 115% | 105% | 127% | 82% | 101% | 84.5% | 92.3% | 103% | 97.5% | 89.4% | 78.4% | 93.8% | 76.7% | 88.9% | 90.2% | 102% | 109% | 103% | 104% | 112% | 98.6% | 86.6% | 94.5% | 76.1% | 103%
6 | OCCCNc1cc(-c2ccnc(Nc3cccc(Cl)c3)n2)ccn1 | 86.3% | 99.5% | 110% | 108% | 121% | 45.7% | 10.1% | 8.28% | 6.56% | 5.81% | 3.56% | 103% | 125% | 125% | 123% | 143% | 88.2% | 10.4% | 5.66% | 6.14% | 5.72% | 3.94% | 96.2% | 105% | 114% | 113% | 122% | 62.1% | 10.9% | 5.73% | 6.76% | 5.91% | 3.62%
7 | CNCC(O)C(O)C(O)C(O)CO.O=C(O)c1ccc(-c2cc3cccnc3c(-c3ccc4nonc4c3)n2)cc1 | 104% | 103% | 99.1% | 115% | 114% | 115% | 114% | 131% | 112% | 92.7% | 92% | 100% | 107% | 109% | 108% | 115% | 108% | 115% | 111% | 103% | 108% | 88.8% | 98% | 97.6% | 120% | 103% | 108% | 101% | 112% | 103% | 127% | 87.6% | 65.8%
8 | C[N+](C)([O-])CCNc1ccc(NCC[N+](C)(C)[O-])c2c1C(=O)c1c(O)ccc(O)c1C2=O | 101% | 85.4% | 83.8% | 84.5% | 88.8% | 77.1% | 69.7% | 46.4% | 7.02% | 20.1% | 10.1% | 101% | 95.8% | 105% | 89.9% | 73.5% | 56.6% | 55.8% | 28.8% | 7.28% | 12.8% | 9.18% | 88.9% | 86.1% | 93.8% | 87.7% | 79.5% | 68.2% | 62% | 33.5% | 8.62% | 18.8% | 12%
9 | CO[C@@H]1C(N(C)C(=O)c2ccccc2)C[C@H]2O[C@]1(C)n1c3ccccc3c3c4c(c5c6ccccc6n2c5c31)C(=O)NC4=O (stereo not given in full) | 70.6% | 69.4% | 95.4% | 89.2% | 75.8% | 92.6% | 90% | 80.5% | 40.3% | 14.7% | 7.83% | 68.2% | 66.2% | 92.1% | 91.2% | 86.5% | 86.1% | 75.1% | 47.7% | 19.4% | 10.7% | 7.46% | 81.5% | 84.1% | 91.7% | 79.6% | 82.7% | 102% | 79.7% | 74.4% | 35.7% | 13.2% | 8.6%
10 | COc1cc([C@@H]2c3cc4c(cc3[C@@H](O[C@@H]3O[C@@H]5CO[C@@H](c6cccs6)O[C@H]5[C@H](O)[C@H]3O)[C@H]3COC(=O)[C@H]23)OCO4)cc(OC)c1O | 94.9% | 85% | 89.8% | 95.1% | 83.1% | 85% | 90.8% | 16.4% | 77.9% | 15.3% | 4.57% | 96.7% | 120% | 110% | 103% | 101% | 84.7% | 78.7% | 14.4% | 80.1% | 12.6% | 5.23% | 86.7% | 88.9% | 79% | 85.1% | 79.6% | 68.6% | 66.8% | 9.66% | 63.4% | 11% | 3.6%
11 | O=[N+]([O-])c1cnc(Sc2nnc(O)n2-c2ccc3c(c2)OCCO3)s1 | 90.4% | 69.9% | 80.1% | 82.6% | 73.2% | 86.9% | 102% | 84.3% | 83.2% | 2.06% | 2.49% | 87.5% | 70.9% | 87.6% | 87.8% | 89% | 88.6% | 100% | 73.1% | 71.4% | 2.18% | 2.5% | 82.7% | 67.9% | 81.6% | 84.1% | 77.4% | 88.2% | 85.1% | 86.7% | 77.9% | 2.08% | 2.84%
12 | C#Cc1cccc(Nc2ncnc3cc(OC)c(OCCCCCCC(=O)NO)cc23)c1 | 118% | 119% | 104% | 110% | 95.9% | 73.4% | 44% | 15.1% | 6.25% | 5.23% | 3.28% | 88.3% | 91.8% | 75.6% | 81.3% | 69.8% | 46.3% | 26.5% | 6.61% | 4.45% | 3.81% | 1.74% | 119% | 123% | 108% | 120% | 117% | 59.2% | 28.8% | 9.73% | 6.06% | 5.12% | 2.79%
13 | COC1=CC=C(C=C1)C2CC(=N/N2C3=CC=C(C=C3)[S+](N)([O-])=O)\C4=CC=CC=C4 (stereo not given) | 83.3% | 91.2% | 91.4% | 104% | 110% | 69.2% | 86.3% | 51.3% | 30.9% | 4.3% | 2.47% | 104% | 86.1% | 107% | 104% | 107% | 43.4% | 72.9% | 37.8% | 14.8% | 2.74% | 1.62% | 87.3% | 74% | 84.3% | 95.4% | 100% | 60.1% | 63.3% | 45.9% | 19% | 2.63% | 2.05%
14 | COC[C@H]1OC(=O)C2=COC3=C2[C@@]1(C)\C4=C(\[C@@H]5CC[C@H](O)[C@@]5(C)C[C@H]4OC(C)=O)C3=O | 95.1% | 117% | 48.9% | 114% | 113% | 113% | 117% | 111% | 102% | 98.6% | 54.7% | 60.9% | 67.4% | 15.9% | 71.7% | 77.7% | 84.9% | 67.9% | 77.3% | 55.9% | 53.2% | 33.7% | 101% | 99% | 45.8% | 98.4% | 115% | 108% | 104% | 105% | 84.7% | 68.2% | 30.8%
15 | CC(C)(C)c1cc(C(=O)O)c(NC(=O)Nc2ccc3[nH]ncc3c2)s1 | 95.4% | 97.5% | 89.6% | 101% | 100% | 70.7% | 100% | 98.6% | 85.9% | 93.1% | 82.2% | 112% | 93.2% | 94.2% | 107% | 101% | 90.8% | 111% | 104% | 101% | 93.1% | 77.7% | 95.2% | 93.1% | 83.3% | 97.5% | 99.6% | 88.9% | 102% | 91% | 87.5% | 93.7% | 73.2%
